Patent US9132138B2, “Method for the treatment of multiple sclerosis” (CASI Pharmaceuticals, Inc., priority 2012, dated 2015)

Key:
ERβ = ERβ (Homo sapiens, UniProt Q92731); details: cited from earlier work
[1] = test system: SEB-induced cytokine production; set-up: species or system C57/BL6 mice; details: mouse, in vivo
NFAT = test: Gaussia luciferase reporter assay in Jurkat cells; format: cell-based; details: anti-CD3/28, 5 hours
Method: (§1) FIG. 4A, purified T cells pre-treated with 2ME2 (50 μM) were stimulated with PMA/iono for the indicated times. Whole cell lysates were subjected to immunoblotting to detect the indicated proteins. FIG. 4B, nuclear lysates were analyzed by EMSA to detect DNA binding to NF-κB or AP-1. FP, free probe. FIG. 4C, purified T cells or B cells were pre-treated with vehicle (−) or 50 μM 2ME2 (+) and were stimulated with PMA/iono for 30 or 60 minutes (left), or with anti-CD3/28 or anti-IgM/CD40 for 24 hours (right). Nuclear fractions of lymphocytes were analyzed by immunoblotting to detect nuclear translocation of NFATc1. Lamin A, nuclear protein loading control. NS; non-specific band. […]
(§2) Luciferase Assays were performed using Jurkat cells harboring a stably integrated Gaussia-luciferase reporter gene under the control of NF-κB or NFAT binding sites (Termed NFAT/NF-κB-GLuc reporter Jurkat). Gaussia luciferase contains a secretion peptide sequence mediating quantitative secretion of active enzyme into the surrounding medium. […] Luciferase activity was measured in 96-well plates using a Orion L microplate Luminometer (Berthold Detection Systems) with an integration time of 3.0 seconds. In parallel, cell viability was determined using the CellTiter-Glo® Luminescent Cell Viability Assay (Promega) and normalized Gluc activity was calculated as the ratio between Gluc activity and cell viability counts.

NF-κB = test: Gaussia luciferase reporter assay in Jurkat cells; format: cell-based; details: anti-CD3/28, 5 hours
Method: as §1, §2

T cells [2] = test: T cell viability by flow cytometry (Annexin V and propidium iodide); format: cell-based, C57/BL6 mice
Method: FIGS. 2A-2E, show proliferation and activation of T cells are inhibited by 2ME2. FIG. 2A, CD4^+ T cells were pre-treated with the indicated concentrations of 2ME2 and stimulated with plate-bound anti-CD3/28 or PMA/iono. Proliferation was assayed 24 hours (left) or 48 hours (right) later by 3H-thymidine incorporation. FIG. 2B, CD4^+ and CD8^+ T cells were stimulated with anti-CD3/28 in the presence of increasing concentrations of 2ME2. CD25 expression was assessed at 6 hours or 24 hours post-stimulation by flow cytometry. FIG. 2C, Quantification of CD25 expression in purified CD4^+ T cells pre-treated with increasing concentrations of 2ME2, and stimulated with anti CD3/28 or PMA/iono for 6 or 24 hours. FIG. 2D, T cells were pretreated with the indicated doses of 2ME2 and left untreated (left) or stimulated using plate-bound anti-CD3/28 (right). Viability was determined 24 hours or 48 hours post-stimulation by flow cytometry. FIG. 2E, human PBMC were activated with anti-human CD3/28 in the presence of increasing concentrations of 2ME2. Proliferation was determined 24 hours or 48 hours later by 3H-thymidine incorporation. Data are mean±SD of triplicate determinations and are representative of three separate donors. For FIG. 2A and FIG. 2E, data shown are the mean±SD of triplicate determinations, and are representative of 3 experiments. For FIG. 2B and FIG. 2C data is representative of two experiments.
Cells were pre-incubated with various concentrations of 2ME2 (Entremed) or vehicle (DMSO) for 30 minutes at 37° C.
(§3) Purified CD4^+ T cells were stimulated with plate-bound anti-CD3 (clone 2C11, BD, 10 ng/ml) plus anti-CD28 (clone 37.51, BD, 100 ng/ml). […] CD25 and CD69 expression was determined by flow cytometry (FACSCanto II, BD) and analyzed using FloJo software (Treestar Inc). Proliferation was assessed by 3H-thymidine incorporation. Viability and upregulation of cell surface markers on activated T cells were assessed by flow cytometry using Annexin V and propridium iodide. […]

human PBL [3] = test: CD25 expression and cytokine production by CD3/28-stimulated human PBL; format: cell-based
Method: Purified CD4^+ T cells were stimulated with plate-bound anti-CD3 (clone 2C11, BD, 10 ng/ml) plus anti-CD28 (clone 37.51, BD, 100 ng/ml). Purified B220+ B cells were stimulated with anti-IgM (Jackson, 5 μg/ml), anti-CD40 (clone 3/20, BD, 5 μg/ml) or LPS (Sigma, 20 μg/ml) for the times indicated in FIG. 3. CD25 and CD69 expression was determined by flow cytometry (FACSCanto II, BD) and analyzed using FloJo software (Treestar Inc). Proliferation was assessed by 3H-thymidine incorporation. Viability and upregulation of cell surface markers on activated T cells were assessed by flow cytometry using Annexin V and propridium iodide. Human Peripheral blood mononuclear cells (PBMC) were isolated using Mono-Poly Resolving Medium (MP Biomedical) according to the manufacturer's protocols and activated with anti-CD3 (clone UCHT1) and anti-CD28 (clone CD28.2).

human PBL [4] = test: Proliferation of human PBMC/PBL activated with anti-CD3/28 (3H-thymidine); format: cell-based; details: anti-CD3/28 antibodies, 24 or 48 hours
Method: FIGS. 2A-2E, show proliferation and activation of T cells are inhibited by 2ME2. FIG. 2A, CD4^+ T cells were pre-treated with the indicated concentrations of 2ME2 and stimulated with plate-bound anti-CD3/28 or PMA/iono. Proliferation was assayed 24 hours (left) or 48 hours (right) later by 3H-thymidine incorporation. FIG. 2B, CD4^+ and CD8^+ T cells were stimulated with anti-CD3/28 in the presence of increasing concentrations of 2ME2. CD25 expression was assessed at 6 hours or 24 hours post-stimulation by flow cytometry. FIG. 2C, Quantification of CD25 expression in purified CD4^+ T cells pre-treated with increasing concentrations of 2ME2, and stimulated with anti CD3/28 or PMA/iono for 6 or 24 hours. […] Viability was determined 24 hours or 48 hours post-stimulation by flow cytometry. […] Proliferation was determined 24 hours or 48 hours later by 3H-thymidine incorporation. […]
as §3

[5] = oral 2ME2, mice and humans; cited from earlier work
T cells [6] = test: Immunoblotting of signaling proteins in whole cell lysates of stimulated T cells; format: cell-based, C57/BL6 mice
Method: FIG. 4A, purified T cells pre-treated with 2ME2 (50 μM) were stimulated with PMA/iono for the indicated times. Whole cell lysates were subjected to immunoblotting to detect the indicated proteins. FIG. 4B, nuclear lysates were analyzed by EMSA to detect DNA binding to NF-κB or AP-1. FP, free probe. FIG. 4C, purified T cells or B cells were pre-treated with vehicle (−) or 50 μM 2ME2 (+) and were stimulated with PMA/iono for 30 or 60 minutes (left), or with anti-CD3/28 or anti-IgM/CD40 for 24 hours (right). Nuclear fractions of lymphocytes were analyzed by immunoblotting to detect nuclear translocation of NFATc1. Lamin A, nuclear protein loading control. NS; non-specific band. For FIGS. 4A-4C, data are representative of at least two independent experiments. FIG. 4D, stably transfected NFAT and NF-κB Jurkat luciferase reporter cell lines were preincubated with 2ME2 for 30 minutes, and stimulated via crosslinking of anti-CD3/28 antibodies with goat anti-mouse antibodies (GaM). 5 hours later, secreted luciferase activity indicates relative transcriptional activity. Data is reported as normalized luciferase activity and is representative of 3 independent experiments.
Whole cell lysates of stimulated T cells were immunoblotted with Ab recognizing phospho-protein kinase B (AKT) (Ser473), phospho-JNK (Thr183/Tyr185, p46 and p54 Clone G9, antibody “2”), phospho-ERK (Thr202/Tyr204) or phospho-IκBα (Ser32) (NEB); phospho-JNK (Thr183/Tyr185, p54 pSAPK/JNK, clone G7, antibody “1”) or IκBα(C21) (Santa Cruz); β-tubulin (Millipore) or actin (Sigma). Infrared dye-labeled secondary Ab (anti-rabbit Alexa fluor 680, Invitrogen, and anti-mouse IR800, LICOR) were visualized with the Odyssey® scanner (LICOR).

[7] = T cells activated with anti-CD3/28

Chain of ERβ (Q92731 whole entry, species assumed): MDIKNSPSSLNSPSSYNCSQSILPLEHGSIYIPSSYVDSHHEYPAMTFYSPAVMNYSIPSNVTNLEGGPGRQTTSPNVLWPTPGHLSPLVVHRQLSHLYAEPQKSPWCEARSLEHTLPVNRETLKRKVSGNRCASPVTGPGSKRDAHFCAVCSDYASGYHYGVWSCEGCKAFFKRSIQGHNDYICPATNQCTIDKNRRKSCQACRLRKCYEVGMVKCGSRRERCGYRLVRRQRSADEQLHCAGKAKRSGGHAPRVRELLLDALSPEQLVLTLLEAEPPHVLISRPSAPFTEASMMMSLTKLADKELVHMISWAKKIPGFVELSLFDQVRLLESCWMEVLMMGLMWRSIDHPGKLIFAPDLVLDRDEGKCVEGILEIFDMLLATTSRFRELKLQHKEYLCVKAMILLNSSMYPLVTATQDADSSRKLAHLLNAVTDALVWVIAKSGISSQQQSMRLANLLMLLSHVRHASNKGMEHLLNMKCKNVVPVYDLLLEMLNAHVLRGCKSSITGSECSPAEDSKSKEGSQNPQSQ

COc1cc2c(cc1O)CC[C@@H]1[C@@H]2CC[C@]2(C)[C@@H](O)CC[C@@H]12 [2ME2, 2-Methoxyestradiol]
lower affinity than estradiol for ERβ (ERβ): 3200 fold | serum IL-6 [1]: significantly less | serum TNFα [1]: significantly less | transcriptional activation of NFAT via TCR ligation (normalized luciferase activity) (NFAT): dramatically inhibited | NF-κB-dependent transcriptional activity (normalized luciferase activity) (NF-κB): no effect | apoptosis in activated T cells (T cells [2]; 24 hours): none was apparent | apoptosis in un-stimulated T cells (T cells [2]; 24 hours): only a modest 2ME2-dependent increase in apoptosis | viability of activated T cells (T cells [2]; 48 hours post-stimulation): reduced viability | IFNγ production (human PBL [3]; CD3/28-stimulated human PBL): inhibited | IL-2 production (human PBL [3]; CD3/28-stimulated human PBL): inhibited | IL-17A production (human PBL [3]; CD3/28-stimulated human PBL): inhibited | anti-CD3/28-induced expression of CD25 on CD4+ and CD8+ T cells (human PBL [3]; human PBL): inhibited | proliferation of human PBL (human PBL [4]): inhibited in a dose-dependent manner | bioavailability [5]: 1.5% | AKT phosphorylation (T cells [6]; 2ME2 50 μM, PMA/iono): did not inhibit | ERK phosphorylation (T cells [6]; 2ME2 50 μM, PMA/iono): did not inhibit | IκBα phosphorylation and degradation (T cells [6]; 2ME2 50 μM, PMA/iono): normal | phosphorylation of JNK 1 and 2 (T cells [6]; 2ME2 50 μM, present even in the absence of stimulation): modest hyper-phosphorylation | ERK phosphorylation (T cells [6]; [7]): did not inhibit | JNK phosphorylation (T cells [6]; [7]): did not inhibit | NF-κB p65 phosphorylation (T cells [6]; [7]): did not inhibit
